Numbered stars: 1 amine (or outer) side, 2 acyl side, 3 side chain; on linkers, the order of the positions; unused ones are H or OH. Square brackets hold non-standard residues; d marks the D form. Side chains are listed from the residue outwards. Peptide text beside a SMILES is read from it. * marks the point of attachment. Biotin = O=C1N[C@H]2[C@H](CS[C@H]2CCCCC(=O)*)N1; Gly(N-(CH2)3-guanidino) = N=C(N)NCCCNCC(=O)O; Glutaryl = O=C(CCCC(=O)[*:2])[*:1]; X2 = O=C(Oc1c(F)c(F)c(F)c(F)c1F)*; X1 = O=C1CCC(=O)N1OC(=O)*; X3 = C#Cc1cccc(N*)c1; Ahx = NCCCCCC(=O)O Some results are limits rather than exact numbers.

The target in assay [1] is Trypsin. As to conditions: for Ki / k3 / k3/Ki: Trypsin; for Ki: PBS pH 7.4, 37° C., Cbz-Gly-Gly-Arg-NHMec 50 μM; for Ki / k3/Ki: Mean (±SD); for k3: first-order rate constant, mean; for k3/Ki: overall second-order rate constant; for over all second-order rate constant: trypsin.
Description: (§1) The ability of compounds of the invention to inhibit the activities of a range of commercially sourced proteases was assessed using steady state fluorogenic substrate assays. […] Assays were carried out in PBS, pH 7.4, at 37° C., in the presence of varying concentrations of inhibitor (10-50 μM) and a fixed concentration of substrate (50 μM). […] In this mechanism, the inhibitor I, binds the target protease to form an initial reversible complex EI, characterised by the inhibitor constant Ki. This is followed by the formation of an irreversible complex E-I from EI, characterised by the first-order rate constant k3.
In assay [2] the test system is ENaC. It counts as cell-based.
Description: All determinations were conducted using a TECC24 semiautomated system. Unlike the traditional Ussing chamber assays, where the short circuit current (ISC) is measured as an index of CFTR correction, the TECC-24 assay measures the equivalent current (IEQ).
The subject of assay [3] is Chymotrypsin. Briefly: Steady state fluorogenic substrate assay, inactivation of chymotrypsin. The note with it: for k3: mean; for second-order rate constant: chymotrypsin.
Description: as §1
Assay [4] has as its target Plasmin (Homo sapiens, UniProt P00747). Briefly: Steady state fluorogenic substrate assay, inactivation of plasmin.
Description: as §1
The test system of assay [5] is primary CF Airway Epithelial Cells (AECs). The note with it: 50 μM, 24 hours, n=3, vehicle control 3.5.
Description: Mucociliary clearance was quantified by measuring the velocity of microbeads apically applied to differentiated primary CF Airway Epithelial Cells (AECs). Compounds (50 μM) were added to the apical surface of primary CF AECs for a period of 24 hours. Mucociliary flow was then determined by tracking and measuring the velocity of apically applied microbeads across the CF AEC surface.
Assay [6] has as its target Matriptase (Homo sapiens, UniProt Q9Y5Y6). The note with it: for k3/Ki: Mean (±SD); for k3: mean.
Description: as §1
The target of assay [7] is Human Airways Trypsin-like protease (HAT) (Homo sapiens, UniProt O60235). The note with it: for k3/Ki: Mean (±SD); for k3: mean.
Description: as §1
Assay [8] concerns endogenous protease activities in CF sputum sol. As to conditions: CF sputum sol from 8 individual CF patients; Boc-Gln-Ala-Arg-AMC 50 μM.
Description: (§2) Inhibition of endogenous protease activities in CF sputum sol, was conducted as for Example 8 but in the presence of Boc-Gln-Ala-Arg-AMC (50 μM) as substrate. The rate of hydrolysis of the substrate at 37° C. was monitored and residual activity determined.
Assay [9] concerns primary human airway epithelial (HAE) cell cultures. The note with it: 10 μM, Boc-QAR-AMC 50 μM, 37° C.
Description: as §2
Assay [10] concerns trypsin-like serine proteases in CF Sol. As to conditions: 10 μM; pooled CF sputum sol diluted ×4; substrate Cbz-Gly-Gly-Arg-AMC; 37° C.
Description: Briefly, the spectrofluorimetic analysis was conducted on a sample of pooled supernatant recovered by centrifugation from expectorated cystic fibrosis sputum, which had been diluted ×4 with phosphate-buffered saline (sputum sol). […] The rate of hydrolysis of the substrate at 37° C. was monitored and inhibition as a % of an untreated control calculated.
Assay [11] addresses Thrombin (Homo sapiens, UniProt P00734).
Description: as §1

Sequence of Human Airways Trypsin-like protease (HAT) (O60235 whole entry): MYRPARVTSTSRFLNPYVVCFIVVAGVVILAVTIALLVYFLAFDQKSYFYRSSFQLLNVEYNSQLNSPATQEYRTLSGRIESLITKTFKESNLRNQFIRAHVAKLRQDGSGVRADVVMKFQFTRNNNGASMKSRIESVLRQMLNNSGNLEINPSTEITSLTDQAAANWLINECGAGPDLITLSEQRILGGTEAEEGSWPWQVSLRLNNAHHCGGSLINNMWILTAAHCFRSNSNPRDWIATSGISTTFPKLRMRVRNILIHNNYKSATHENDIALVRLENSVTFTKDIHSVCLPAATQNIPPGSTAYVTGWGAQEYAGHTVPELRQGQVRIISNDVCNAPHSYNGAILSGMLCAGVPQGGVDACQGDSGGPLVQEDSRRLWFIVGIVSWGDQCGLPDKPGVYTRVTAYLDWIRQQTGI
Sequence of Matriptase (Q9Y5Y6 whole entry, species assumed): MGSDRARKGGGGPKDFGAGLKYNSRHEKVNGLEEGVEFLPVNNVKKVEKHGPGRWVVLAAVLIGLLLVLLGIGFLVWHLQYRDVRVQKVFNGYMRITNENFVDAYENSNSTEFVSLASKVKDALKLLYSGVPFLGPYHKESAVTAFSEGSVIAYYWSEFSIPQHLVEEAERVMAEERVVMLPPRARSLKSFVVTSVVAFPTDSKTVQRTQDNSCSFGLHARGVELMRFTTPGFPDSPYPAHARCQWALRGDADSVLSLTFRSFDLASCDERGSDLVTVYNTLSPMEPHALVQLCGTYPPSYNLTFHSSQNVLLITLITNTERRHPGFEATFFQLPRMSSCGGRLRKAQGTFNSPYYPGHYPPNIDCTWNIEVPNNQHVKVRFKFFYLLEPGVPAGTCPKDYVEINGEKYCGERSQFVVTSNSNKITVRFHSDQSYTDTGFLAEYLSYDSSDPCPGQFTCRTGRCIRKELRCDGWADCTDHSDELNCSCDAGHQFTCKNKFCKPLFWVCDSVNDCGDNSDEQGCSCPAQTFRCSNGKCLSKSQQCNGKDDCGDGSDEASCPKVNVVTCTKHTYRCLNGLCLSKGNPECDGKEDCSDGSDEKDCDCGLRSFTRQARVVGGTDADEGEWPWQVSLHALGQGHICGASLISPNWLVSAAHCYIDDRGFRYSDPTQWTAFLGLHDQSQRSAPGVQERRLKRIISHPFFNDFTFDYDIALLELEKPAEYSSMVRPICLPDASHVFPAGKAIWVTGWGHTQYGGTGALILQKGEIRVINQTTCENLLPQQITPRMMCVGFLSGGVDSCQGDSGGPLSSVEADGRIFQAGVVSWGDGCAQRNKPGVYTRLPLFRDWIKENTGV
Sequence of Plasmin (P00747 97-810, species assumed): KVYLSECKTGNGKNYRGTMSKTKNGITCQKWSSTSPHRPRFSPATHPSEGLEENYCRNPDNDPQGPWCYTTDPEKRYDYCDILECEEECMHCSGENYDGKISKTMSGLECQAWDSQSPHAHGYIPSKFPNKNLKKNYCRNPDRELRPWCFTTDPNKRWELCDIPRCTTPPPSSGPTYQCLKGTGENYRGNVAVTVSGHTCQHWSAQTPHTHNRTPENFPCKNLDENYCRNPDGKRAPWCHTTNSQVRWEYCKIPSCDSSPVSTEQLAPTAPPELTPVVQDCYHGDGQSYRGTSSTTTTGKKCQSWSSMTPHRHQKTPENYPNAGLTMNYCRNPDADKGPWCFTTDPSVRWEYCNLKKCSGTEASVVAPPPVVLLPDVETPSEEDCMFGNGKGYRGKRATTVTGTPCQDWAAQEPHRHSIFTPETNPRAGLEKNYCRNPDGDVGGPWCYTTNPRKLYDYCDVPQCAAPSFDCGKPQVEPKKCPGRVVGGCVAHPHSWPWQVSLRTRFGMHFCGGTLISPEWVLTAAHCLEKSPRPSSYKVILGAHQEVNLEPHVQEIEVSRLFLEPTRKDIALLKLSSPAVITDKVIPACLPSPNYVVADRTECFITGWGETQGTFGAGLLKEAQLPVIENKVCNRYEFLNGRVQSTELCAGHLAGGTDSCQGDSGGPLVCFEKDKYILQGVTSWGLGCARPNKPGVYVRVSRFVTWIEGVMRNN

On to `C#Cc1cccc(NC(=O)CCCC(=O)NCCCC[C@H](NC(=O)CCCCCNC(=O)CNC(=O)CNC(=O)CN(CCCNC(=N)N)C(=O)ON2C(=O)CCC2=O)C(=O)O)c1` [NAP884, N-6-(1-acetylene-3-amino-phenyl)-di-carboxy-pentane-Lys-NH-Ahx-Gly-Gly-N-(n-guanidino-propyl)-glycine succinimidyl carbamate] (X1-[Gly(N-(CH2)3-guanidino)]GG[Ahx]K([Glutaryl-X3])-OH), for which, in [1], the Ki was 420 nM, the k3 turned out to be 0.528 min⁻¹ and the k3/Ki is recorded as 1.34 (±0.351) × 10^6 M^−1 min^−1.
In the same order, the values of `N=C(N)NCCCN(CC(=O)NCC(=O)NCC(=O)NCCCCCC(=O)N[C@@H](CCCCNC(=O)CCCC[C@@H]1SC[C@@H]2NC(=O)N[C@@H]21)C(=O)O)C(=O)ON1C(=O)CCC1=O` [NAP897, HO-Lys(Biotin)-Ahx-Gly-Gly-N-(n-guanidino-propyl)-glycine succinimidyl carbamate] (X1-[Gly(N-(CH2)3-guanidino)]GG[Ahx]K(Biotin)-OH) are 660 nM, 0.7 min⁻¹ and 1.3 (±0.4) × 10^6 M^−1 min^−1.
In the same order, the values of `N=C(N)NCCCN(CC(=O)NCC(=O)NCC(=O)NCCCCCC(=O)N[C@@H](CCCCNC(=O)CCCC[C@@H]1SC[C@@H]2NC(=O)N[C@@H]21)C(=O)O)C(=O)Oc1c(F)c(F)c(F)c(F)c1F` [NAP966, HO-Lys(biotin)-Ahx-Gly-Gly-N-(n-guanidino-propyl)-glycine pentafluorophenyl carbamate] (X2-[Gly(N-(CH2)3-guanidino)]GG[Ahx]K(Biotin)-OH) are 2100 nM, 0.4 min⁻¹ and 1.9 (±0.25) × 10^5 M^−1 min^−1.
Regarding `N=C(N)NC(=O)c1nc(Cl)c(N)nc1N` [amiloride, reference compound], the “inhibition of the observable current” value in assay [2] (10 μM, added to terminate the experiment, ENaC-expressing FRT cells) is recorded as above 95%.
As to “Biotin-PEG-NH-Gly-Gly-N-(benzyl)-glycine succinimidyl carbamate [NFP849]”, the k3/Ki in assay [3] (Chymotrypsin, Mean (±SD)) is on record as 1.3 (±0.4) × 10^6 M^−1 min^−1. This compound also showed a Ki in [3] (Chymotrypsin, Suc-Ala-Ala-Pro-Phe-NHMec 50 μM, Mean (±SD)) of 890 nM. Besides, the k3 in assay [3] (Chymotrypsin) was 0.8 min⁻¹. For the same compound, the second-order rate constant in assay [3] is 1.28 (±0.442)×10^6 M^−1·min^−1.
Compound “Biotin-PEG-NH-Gly-Gly-N-(n-amino-butyl)-glycine succinimidyl carbamate [NKP830]” yielded a Ki in assay [4] (Boc-Val-Leu-Lys-NHMec 50 μM, Mean (±SD)) of 7200 nM. Besides, the k3/Ki in [4] (Mean (±SD)) is 6.2 (±0.9) × 10^4 M^−1 min^−1. The k3 in assay [4] (mean) was 0.4 min⁻¹. Besides, in [1], the Ki stood at 220 nM, the k3 came to 0.5 min⁻¹, the k3/Ki is on record as 2.7 (±0.5) × 10^6 M^−1 min^−1 and the “over all second-order rate constant” value was 2.74 (±0.547)×10^6 M^−1·min^−1.
Consider “Biotin-PEG-NH-Gly-Gly-N-(n-guanidino-propyl)-glycine succinimidyl carbamate [NAP858]”, for which the “ENaC activity (reduction of current)” value in assay [2] (50 μM, primary CF cultures, over a 90 minute period) worked out at 36 μA/cm2. In addition, in assay [5], the “mucociliary clearance (velocity of apically applied microbeads)” value turned out to be 6.83 μm/s. Also, in assay [6], the k3/Ki is 1.30 (±0.943) × 10^6 M^−1 min^−1 and the k3 was 0.314 min⁻¹. Moreover, in [7], the k3/Ki is listed as 1.50 (±1.76) × 10^6 M^−1 min^−1 and the k3 was found to be 0.464 min⁻¹. Moreover, in assay [8], the “inhibition of endogenous protease activity, residual activity compared with QUB-TL1” value is reported as “superior to QUB-TL1”. Besides, the extracellular tryptic activity entry in [9] was “reduced extracellular tryptic activity to a similar degree as that of QUB-TL1”. In assay [1], the Ki was determined as 486 nM, the k3 was 0.299 min⁻¹, the k3/Ki is recorded as 1.95 (±2.62) × 10^6 M^−1 min^−1 and the “over all second-order rate constant” value is reported as 2.60 (±0.884)×10^6 M^−1·min^−1. The “inhibition of hydrolytic action of trypsin-like serine proteases in CF Sol” value in [10] was “complete inhibition”.
Turning to “Biotin-PEG-NH—(N-benzyl-glycyl)-(D)-phenylalanyl-N-(n-guanidino-propyl)-glycine succinimidyl carbamate [NAT988]”, the k3/Ki in assay [11] (Mean (±SD)) is given as 4.7 (± 1.1) × 10^5 M^−1 min^−1. The compound further registered a k3 in [11] (mean) of 0.4 min⁻¹.
“Biotin-PEG-NH—(N-methyl glycyl)-(N-methyl glycyl)-N-(benzyl)-glycine succinimidyl carbamate [CG877]”: the k3 in assay [3] (Chymotrypsin) came to 0.7 min⁻¹. In addition, the second-order rate constant in assay [3] is reported as 2.46 (±0.214)×10^5 M^−1·min^−1.
Turning to “Biotin-PEG-NH—N-(n-guanidino-propyl)-glycine-Gln-Sar-N-(n-guanidino-propyl)-glycine succinimidyl carbamate [NAP1099]”, the k3/Ki is reported as 8.52 (±9.05) × 10^6 M^−1 min^−1 in assay [6], 3.71 (±2.89) × 10^6 M^−1 min^−1 in assay [7] and 3.80 (±3.16) × 10^6 M^−1 min^−1 in assay [1]. Further, the k3 was found to be 0.302 min⁻¹ in assay [6], 0.474 min⁻¹ in [7] and 0.354 min⁻¹ in [1]. The “inhibition of endogenous protease activity, residual activity compared with QUB-TL1” value in assay [8] was “superior to QUB-TL1”. Further, the extracellular tryptic activity result in [9] is listed as “reduced extracellular tryptic activity to a similar degree as that of QUB-TL1”.

For the origin of these results see patent publication US11104703B2, “Binding compound and uses thereof” (priority 2016, dated 2021).
